Data published in publication PMC4999848 (Toxins, 2016).
Where “and” joins values, the source holds several entries; their conditions need not be identical. Equal entries are not always repeated.

Experiments:
pancreatic lipase = biological target: T1, pancreatic lipase (Sus scrofa, UniProt P00591); assay: Deacetylation of 3/15ADON by pancreatic lipase; type: in vitro ADME, porcine; conditions: lipase 0.75 mg/mL, PBS pH 7.4, 37 °C, substrate 100 μM
T1 construct: purchased Sigma-Aldrich
Protocol: Stock solutions of DON, 3ADON and 15ADON at 2 mg/mL were prepared in absolute ethanol and stored at −20 °C. For deacetylation assay, 3- or 15ADON were incubated with cells, explants, bacteria or digestive enzymes after being diluted in PBS^++ at a final concentration of 100 μM. PBS^++ solution containing only ethanol (at 1.5% final concentration) or DON (at 100 μM) were used in parallel as negative and positive control, respectively. For cells and explants, deacetylation assay take place in 6-well plates, wells being filled with 2 mL of PBS^++ containing either ethanol, DON, 3- or 15ADON. For fecal bacteria and digestive enzyme assay, deacetylation assay was conducted in 2 mL Eppendorf tubes filled with 1.5 mL of PBS^++ containing either ethanol, DON, 3- or 15ADON. In vitro intestinal digestion by luminal enzymes was performed using porcine enzymes from Sigma-Aldrich and physiological conditions. […] In all cases, aliquots of the reaction solution were collected immediately (i.e., “time zero” sample) or after the indicated time period at 37 °C and analyzed by HPLC. […]
Deacetylation was monitoring both in term of disappearance of 3- or 15ADON and formation of DON. […] Quantification was based on calibration with the corresponding standard using Millinium Software (Waters, Saint Quentin Falavier, France).

human fecal bacteria = assay: Deacetylation of 3/15ADON by human fecal bacteria; type: in vitro ADME; conditions: for Disappearance of 3/15ADON, specific activity: fecal bacteria, anaerobic, 37 °C, substrate 100 μM; for % of deacetylation: human fecal bacteria; for Contribution to total deacetylation activity: Bacteria: percentage of sum of specific activities (Figure 8)
Protocol: The whole procedure involving fecal bacteria (including the use of fecal bacteria for the deacetylation assay) was performed in an anaerobic cabinet (Coy Laboratory Products, Grass Lake, MI, USA). Human fecal bacteria were isolated from three volunteers (men) working in the department, 40–50 years of age. Stools were collected fresh in a sterile container and were immediately introduced into the anaerobic cabinet. Feces samples were taken by pushing a cut-off disposal 1 mL pipette tip into the inner part of the stools. Samples were then mechanically suspended in 9 mL of degassed PBS^++. Homogenates were allowed to decant for ten minutes to eliminate insoluble matter, and supernatants (1 mL aliquots) were transferred to sterile Eppendorf tubes and used for deacetylation assay.
(§1) Stock solutions of DON, 3ADON and 15ADON at 2 mg/mL were prepared in absolute ethanol and stored at −20 °C. For deacetylation assay, 3- or 15ADON were incubated with cells, explants, bacteria or digestive enzymes after being diluted in PBS^++ at a final concentration of 100 μM. PBS^++ solution containing only ethanol (at 1.5% final concentration) or DON (at 100 μM) were used in parallel as negative and positive control, respectively. For cells and explants, deacetylation assay take place in 6-well plates, wells being filled with 2 mL of PBS^++ containing either ethanol, DON, 3- or 15ADON. For fecal bacteria and digestive enzyme assay, deacetylation assay was conducted in 2 mL Eppendorf tubes filled with 1.5 mL of PBS^++ containing either ethanol, DON, 3- or 15ADON. In vitro intestinal digestion by luminal enzymes was performed using porcine enzymes from Sigma-Aldrich and physiological conditions. Briefly, 3- or 15ADON were incubated with pepsin (at 1.6 mg/mL corresponding to 900 U/mL), trypsin (at 0.35 mg/mL corresponding to 6000 U/mL), pancreatic lipase (at 0.75 mg/mL corresponding to 18 U/mL) or pancreatin (at 1.23 mg/mL, lipase activity >10 U/mL, protease activity >100 U/mL, amylase activity >100 U/mL). Except for pepsin for which the digestion was conducted in HCl solution at 10 mM (pH 2.3), in vitro digestion was performed in PBS^++ (pH 7.4). Finally, deacetylation assay was also performed with commercial pooled S9 fractions from human liver, small intestine and kidneys as well as with pure recombinant human CES1 and CES2. S9 fractions and CES1/2 were used at 0.1 mg/mL and 5 μg/mL (corresponding to CES activity >20 U/mL), respectively. In all cases, aliquots of the reaction solution were collected immediately (i.e., “time zero” sample) or after the indicated time period at 37 °C and analyzed by HPLC. […] In all cases, the experiments were conducted in triplicate (n = 3).
(§2) Deacetylation was monitoring both in term of disappearance of 3- or 15ADON and formation of DON. Measurement of DON, 3ADON and 15ADON concentrations was performed by reversed-phase HPLC using Waters Alliance System equipped with a Waters 2690 XE separation module and a Waters 996 photodiode array detector (Waters, Saint Quentin Falavier, France). The separation was achieved by mean of a LiChroCart column (125 mm × 4 mm) packed with 5 μm RP-18 Purospher gel (Merck, Darmstadt, Germany) and equipped with a LiChroCart precolumn (4 mm × 4 mm) packed with the same material (Merck). The precolumn and column were placed in room temperature. The elution procedure was carried out at 0.7 mL·min^−1 by a methanol–water solvent, using the following conditions: 40% methanol during 2 min followed by an increase in methanol to 50% at 2.1 min.

[1] = Deacetylation of 3/15ADON by small intestine S9 fraction; type: in vitro ADME, human
Protocol: as §1
as §2, with “min. The detection wavelength was set at 237 nm allowing the best signal/baseline ratio for simultaneous detection of the three DON forms in the incubation mediums. Under these conditions, DON and 3/15ADON were clearly separated, the retention time being around 2.7 min and 5.7 min, for DON and 3/15ADON, respectively (Figure 9). Quantification was based on calibration with the corresponding standard using Millinium Software (Waters, Saint Quentin Falavier, France).” for “min.”

[2] = Deacetylation of 3/15ADON by liver S9 fraction; type: in vitro ADME, human
Protocol: as §1
as §2, with “min. The detection wavelength was set at 237 nm allowing the best signal/baseline ratio for simultaneous detection of the three DON forms in the incubation mediums. Under these conditions, DON and 3/15ADON were clearly separated, the retention time being around 2.7 min and 5.7 min, for DON and 3/15ADON, respectively (Figure 9). Quantification was based on calibration with the corresponding standard using Millinium Software (Waters, Saint Quentin Falavier, France).” for “min.”

[3] = parameters: method as in PMID 26343882; conditions: pigs, oral and intravenous (i.v) exposures; cited from earlier work
[4] = S9 Intestine + Benzil 100 μM (Table 1)
[5] = S9 small intestine 0.1 mg/mL, 37 °C, substrate 100 μM (Table 3)
[6] = S9 Liver + Benzil 100 μM (Table 1)
[7] = S9 Liver, without benzil (Table 1)
[8] = S9 liver 0.1 mg/mL, 37 °C, substrate 100 μM (Table 3)

T1 sequence (P00591 whole entry): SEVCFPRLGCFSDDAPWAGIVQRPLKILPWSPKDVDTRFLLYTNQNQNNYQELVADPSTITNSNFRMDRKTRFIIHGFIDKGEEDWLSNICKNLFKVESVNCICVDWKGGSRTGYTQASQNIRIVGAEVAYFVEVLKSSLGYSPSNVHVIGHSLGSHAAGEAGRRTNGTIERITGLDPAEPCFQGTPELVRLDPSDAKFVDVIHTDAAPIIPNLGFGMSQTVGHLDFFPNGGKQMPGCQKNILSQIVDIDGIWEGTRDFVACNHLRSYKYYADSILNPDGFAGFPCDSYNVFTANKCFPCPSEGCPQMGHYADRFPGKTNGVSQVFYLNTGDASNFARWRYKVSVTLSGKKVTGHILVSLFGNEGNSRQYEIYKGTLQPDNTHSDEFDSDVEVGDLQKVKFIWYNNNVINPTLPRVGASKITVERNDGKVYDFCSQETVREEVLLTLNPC

**Q.** What does the source list for `CC(=O)O[C@@H]1C[C@]2(C)[C@@]3(CO)[C@H](O)C(=O)C(C)=C[C@H]3O[C@H]1[C@@]21CO1` [3ADON, 3-acetyldeoxynivalenol]?
**A.** Disappearance of 3/15ADON, specific activity (pancreatic lipase): 48 ± 21 pmol/min/mg; Disappearance of 3/15ADON, specific activity (human fecal bacteria): 34 ± 0.9 pmol/min/mg; % of deacetylation (human fecal bacteria; 6 h incubation, 100 μM): 22.6% ± 15.9%; % of deacetylation (human fecal bacteria; 48 h incubation): 82.1% ± 21.9%; Contribution to total deacetylation activity: Bacteria (human fecal bacteria): 2.6%; Disappearance of 3/15ADON, specific activity [1, 4]: 875 ± 83 pmol/min/mg; Disappearance of 3/15ADON, specific activity ([1]; S9 Intestine, without benzil (Table 1)): 1166 ± 110 pmol/min/mg; Disappearance of 3/15ADON, specific activity [1, 5]: 1250 pmol/min/mg and 1250 ± 79 pmol/min/mg; Disappearance of 3/15ADON, specific activity [2, 6]: 1583 ± 39 pmol/min/mg; Disappearance of 3/15ADON, specific activity [2, 7]: 1729 ± 27 pmol/min/mg; Disappearance of 3/15ADON, specific activity [2, 8]: 1791 pmol/min/mg and 1791 ± 29 pmol/min/mg; Transformation into DON in vivo [3]: complete transformation into DON

**Q.** With `CC(=O)OC[C@]12[C@H](O)C(=O)C(C)=C[C@H]1O[C@@H]1[C@H](O)C[C@@]2(C)[C@]12CO2` [15ADON, 15-acetyldeoxynivalenol] as the compound, how does the “Disappearance of 3/15ADON, specific activity” value (“Disappearance of 3/15ADON” for short) (pancreatic lipase) read?
**A.** Its value is 42 ± 18 pmol/min/mg.

**Q.** And the “Disappearance of 3/15ADON” value (human fecal bacteria)?
**A.** The value was 5.8 ± 1.3 pmol/min/mg.

**Q.** What about the “% of deacetylation” value (human fecal bacteria; 6 h incubation, 100 μM) of the same compound?
**A.** The value was “no activity”.

**Q.** And the “% of deacetylation” value (human fecal bacteria; 48 h incubation)?
**A.** The value was 14.9% ± 3.2%.

**Q.** What about the “Contribution to total deacetylation activity: Bacteria” value (human fecal bacteria) of the same compound?
**A.** Its value is 0.9%.

**Q.** What about the “Disappearance of 3/15ADON” value [1, 4] of the same compound?
**A.** Its value is 171 ± 79 pmol/min/mg.

**Q.** What about the “Disappearance of 3/15ADON” value [1, 5] of the same compound?
**A.** The value was 166 pmol/min/mg and 166 ± 20 pmol/min/mg.

**Q.** And the “Disappearance of 3/15ADON” value [2, 6]?
**A.** The value was 125 ± 15 pmol/min/mg.

**Q.** What about the “Disappearance of 3/15ADON” value [2, 7] of the same compound?
**A.** Its value is 166 ± 3.5 pmol/min/mg.

**Q.** And the “Disappearance of 3/15ADON” value [2, 8]?
**A.** The value was 208 pmol/min/mg and 208 ± 41 pmol/min/mg.

**Q.** What about the “Transformation into DON in vivo” value [3] of the same compound?
**A.** The value was “complete transformation into DON”.
